According to patent publication US20250326732A1 (Pretzel Therapeutics, Inc., priority 2021, published 2025):

Each molecule was assayed against POLRMT (Homo sapiens (Human), UniProt O00411) (assay: homogeneous TR-FRET assay of mitochondrial transcription (inhibition of POLRMT)). Conditions: 7.5 nM POLRMT, 15 nM TFB2M, 30 nM TFAM, 0.5 nM DNA template, 500 μM NTPs, 37° C. for 60 minutes.
Sequence of POLRMT (O00411 42-1230): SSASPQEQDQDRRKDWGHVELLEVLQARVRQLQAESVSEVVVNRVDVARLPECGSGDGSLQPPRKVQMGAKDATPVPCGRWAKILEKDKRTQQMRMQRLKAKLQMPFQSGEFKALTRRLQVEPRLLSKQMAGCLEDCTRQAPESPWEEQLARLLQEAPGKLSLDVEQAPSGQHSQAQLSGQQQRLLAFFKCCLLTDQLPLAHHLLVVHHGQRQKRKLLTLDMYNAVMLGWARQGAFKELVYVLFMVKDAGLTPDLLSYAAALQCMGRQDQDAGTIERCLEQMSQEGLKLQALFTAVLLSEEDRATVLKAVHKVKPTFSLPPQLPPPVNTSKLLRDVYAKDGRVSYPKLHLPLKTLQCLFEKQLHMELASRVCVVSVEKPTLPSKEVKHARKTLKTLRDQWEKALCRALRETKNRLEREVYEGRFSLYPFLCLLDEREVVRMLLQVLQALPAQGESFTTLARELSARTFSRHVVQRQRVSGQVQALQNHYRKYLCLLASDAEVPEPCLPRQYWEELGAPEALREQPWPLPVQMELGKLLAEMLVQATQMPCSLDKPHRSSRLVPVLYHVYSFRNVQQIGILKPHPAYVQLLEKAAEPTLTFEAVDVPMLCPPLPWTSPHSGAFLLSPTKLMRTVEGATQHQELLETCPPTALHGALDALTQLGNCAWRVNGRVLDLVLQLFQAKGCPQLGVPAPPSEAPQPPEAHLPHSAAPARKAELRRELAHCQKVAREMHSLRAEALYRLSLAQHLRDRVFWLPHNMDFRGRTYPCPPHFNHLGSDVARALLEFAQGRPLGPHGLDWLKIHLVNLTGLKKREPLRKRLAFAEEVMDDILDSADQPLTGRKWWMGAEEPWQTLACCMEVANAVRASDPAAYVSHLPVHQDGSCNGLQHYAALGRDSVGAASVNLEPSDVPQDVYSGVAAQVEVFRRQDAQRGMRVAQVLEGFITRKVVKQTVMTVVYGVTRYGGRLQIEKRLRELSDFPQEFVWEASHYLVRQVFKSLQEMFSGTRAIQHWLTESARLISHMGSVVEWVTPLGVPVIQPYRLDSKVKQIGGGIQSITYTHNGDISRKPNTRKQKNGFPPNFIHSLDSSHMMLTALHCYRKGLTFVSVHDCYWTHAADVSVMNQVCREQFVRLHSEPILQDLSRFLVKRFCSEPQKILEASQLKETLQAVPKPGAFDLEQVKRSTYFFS
Format: biochemical
Method: The ability of some compounds of the present invention to inhibit POLRMT were determined in a homogeneous TR-FRET Assay using high-throughput screening in a 384-well plate format. […] Detection of the product is facilitated by hybridization of two DNA-oligonucleotide probes to specific and adjacent sequences within the RNA product sequence. Upon annealing of the probes, two fluorophores are coupled directly to an acceptor nucleotide probe (ATTO647, 5′), or introduced via a coupled streptavidin with a biotinylated donor nucleotide probe (Europium cryptate) that is brought into sufficient proximity to serve as a fluorescence-donor-acceptor pair. Thus, a FRET signal at 665 nm is generated upon excitation at 340 nm.
The DNA template is restriction linearized proximal to the promotor 3′-end (pUC-LSP). […] No nucleotide triphosphate mix is added to negative control samples. Microplates with compounds to be tested in the assay are prepared from 10 mM compound stocks in 100% DMSO, equal amounts of DMSO without any compound are added to positive control and negative control samples.
During the incubation, a mix of the detection reagents is prepared in a buffer such that the enzymatic reaction is terminated due to chelating of Mg-ions and increased ionic strength, containing 50 mM Tris-HCl (pH 7.5), 700 mM NaCl, 20 mM EDTA, and 0.01% (w/v) Tween-20. Europium-streptavidin is pre-incubated with a 200-fold molar excess of a random sequence oligonucleotide to block unspecific binding of oligo, for two hours at ambient temperature in the dark. Afterwards, the blocked Europium-streptavidin is kept on ice until use.
At the end of the enzymatic reaction time, 5 μL detection oligo mix in the detection buffer is added, and assay plates are mixed and kept at ambient temperature for one hour, protected from light. The concentration of the Acceptor nucleotide oligo (e.g., ATTO647N-5′-[…]-3′) and Donor nucleotide oligo (e.g., bio-5′-[…](-bio)[…]-bio-3′) in each assay well is 1 nM, and 3 nM, respectively.
After incubation with oligo mix, 5 μL of pre-blocked Europium-streptavidin reagent is dispensed to each assay well, assay plates are again mixed and kept at ambient temperature for one hour, protected from light.
The generated signal is measured with BMG Pherastar microtiter plate reader with a TRF light unit, using excitation at 340 nm, an integration time of 200 μs, and a delay time of 100 μs, before detection at 620 nm and 665 nm. The ratio of donor- and acceptor-fluorescence is used as a measure of the generated transcript product (i.e. enzymatic activity).
Work on “3-methoxy-2-((2-oxo-4-phenyl-2H-chromen-7-yl)amino)propanamide [Example 198]” yielded an IC50 of 2000 nM.
In the case of `Cc1ccccc1-c1cc(=O)oc2cc([C@H]3C[C@H]3C(=O)O)ccc12` (racemic) [Example 226, (cis)-2-(2-oxo-4-(o-tolyl)-2H-chromen-7-yl)cyclopropane-1-carboxylic acid], the IC50 is reported as 400 nM.
For `Cc1ccccc1-c1cc(=O)oc2cc([C@@H]3C[C@H]3C(=O)O)ccc12` (relative stereo) [Example 227, (trans)-2-(2-oxo-4-(o-tolyl)-2H-chromen-7-yl)cyclopropane-1-carboxylic acid], the IC50 was 3000 nM.
Molecule `CNC(=O)[C@@H]1C[C@@H]1c1ccc2c(-c3ccccc3C)cc(=O)oc2c1` (relative stereo) [Example 231, (cis)-N-methyl-2-(2-oxo-4-(o-tolyl)-2H-chromen-7-yl)cyclopropane-1-carboxamide] has an IC50 of 400 nM.
With `CNC(=O)[C@@H]1C[C@H]1c1ccc2c(-c3ccccc3C)cc(=O)oc2c1` (relative stereo) [Example 232, (trans)-N-methyl-2-(2-oxo-4-(o-tolyl)-2H-chromen-7-yl)cyclopropane-1-carboxamide] the IC50 was 2000 nM.
Molecule `Cc1ccccc1-c1cc(=O)oc2cc([C@H]3C[C@H]3C(=O)N(C)C)ccc12` (relative stereo) [Example 234, (cis)-N,N-dimethyl-2-(2-oxo-4-(o-tolyl)-2H-chromen-7-yl)cyclopropane-1-carboxamide] has an IC50 of 3000 nM.
Work on `Cc1ccccc1-c1cc(=O)oc2cc([C@H]3C[C@H]3C(N)=O)ccc12` (relative stereo) [Example 235, (cis)-2-(2-oxo-4-(o-tolyl)-2H-chromen-7-yl)cyclopropane-1-carboxamide] yielded an IC50 of 2000 nM.
Work on `Cc1ccccc1-c1cc(=O)oc2cc([C@@H]3C[C@H]3C(=O)N(C)C)ccc12` (relative stereo) [Example 236, (trans)-N,N-dimethyl-2-(2-oxo-4-(o-tolyl)-2H-chromen-7-yl)cyclopropane-1-carboxamide] yielded an IC50 of 7000 nM.
`Cc1ccccc1-c1cc(=O)oc2cc([C@@H]3C[C@H]3C(N)=O)ccc12` (relative stereo) [Example 238, chiral-(trans)-2-(2-oxo-4-(o-tolyl)-2H-chromen-7-yl)cyclopropane-1-carboxamide] gave an IC50 of 3000 nM.
For `Cc1ccccc1-c1cc(=O)oc2cc([C@@H]3C[C@H]3C(N)=O)ccc12` (relative stereo) [Example 239, chiral-(trans)-2-(2-oxo-4-(o-tolyl)-2H-chromen-7-yl)cyclopropane-1-carboxamide], the IC50 was 900 nM.
`Cc1ccccc1-c1cc(=O)oc2cc([C@@H]3C[C@H]3C(=O)N(C)C)ccc12` (relative stereo) [Example 240, chiral-(trans)-N,N-dimethyl-2-(2-oxo-4-(o-tolyl)-2H-chromen-7-yl)cyclopropane-1-carboxamide] showed an IC50 of 8000 nM.
In the case of `Cc1ccccc1-c1cc(=O)oc2cc([C@@H]3C[C@H]3C(=O)N(C)C)ccc12` (relative stereo) [Example 241, chiral-(trans)-N,N-dimethyl-2-(2-oxo-4-(o-tolyl)-2H-chromen-7-yl)cyclopropane-1-carboxamide], the IC50 is reported as 5000 nM.
`CCOC(C)c1ccc2c(-c3ccc(F)cc3Cl)cc(=O)oc2c1` (single isomer, unassigned) [Example 41, 4-(2-chloro-4-fluorophenyl)-7-(1-ethoxyethyl)-2H-chromen-2-one] showed an IC50 of 1000 nM.
`CCOC(C)c1ccc2c(-c3ccc(F)cc3Cl)cc(=O)oc2c1` (single isomer, unassigned) [Example 42, 4-(2-chloro-4-fluorophenyl)-7-(1-ethoxyethyl)-2H-chromen-2-one] showed an IC50 of 6000 nM.
With `Cc1ccccc1-c1cc(=O)oc2cc(CC(C)C(=O)N3CCCCC3)ccc12` (single isomer, unassigned) [Example 62, 7-(2-methyl-3-oxo-3-(piperidin-1-yl)propyl)-4-(o-tolyl)-2H-chromen-2-one] the IC50 was 80 nM.
Work on `Cc1ccccc1-c1cc(=O)oc2cc(CC(C)C(=O)N3CCCCC3)ccc12` (single isomer, unassigned) [Example 63, 7-(2-methyl-3-oxo-3-(piperidin-1-yl)propyl)-4-(o-tolyl)-2H-chromen-2-one] yielded an IC50 of 3000 nM.
With `Cc1ccccc1-c1cc(=O)oc2cc(CC(C)C(=O)N(C)C)ccc12` (single isomer, unassigned) [Example 64, N,N,2-trimethyl-3-(2-oxo-4-(o-tolyl)-2H-chromen-7-yl)propanamide] the IC50 was 300 nM.
With `Cc1ccccc1-c1cc(=O)oc2cc(CC(C)C(=O)N(C)C)ccc12` (single isomer, unassigned) [Example 65, N,N,2-trimethyl-3-(2-oxo-4-(o-tolyl)-2H-chromen-7-yl)propanamide] the IC50 was 17000 nM.
In the case of `CNC(=O)C(C)Cc1ccc2c(-c3ccccc3C)cc(=O)oc2c1` (single isomer, unassigned) [Example 66, N,2-dimethyl-3-(2-oxo-4-(o-tolyl)-2H-chromen-7-yl)propanamide], the IC50 is reported as 500 nM.
Work on `CNC(=O)C(C)Cc1ccc2c(-c3ccccc3C)cc(=O)oc2c1` (single isomer, unassigned) [Example 67, N,2-dimethyl-3-(2-oxo-4-(o-tolyl)-2H-chromen-7-yl)propanamide] yielded an IC50 of 6000 nM.
`Cc1ccccc1-c1cc(=O)oc2cc(CC(C)C(N)=O)ccc12` (single isomer, unassigned) [Example 68, 2-methyl-3-(2-oxo-4-(o-tolyl)-2H-chromen-7-yl)propanamide] was tested, and the IC50 was 600 nM.
`Cc1ccccc1-c1cc(=O)oc2cc(CC(C)C(N)=O)ccc12` (single isomer, unassigned) [Example 69, 2-methyl-3-(2-oxo-4-(o-tolyl)-2H-chromen-7-yl)propanamide] showed an IC50 of 5000 nM.
`Cc1ccccc1-c1cc(=O)oc2cc(C(C)CC(=O)N3CCC[C@H](C(=O)O)C3)ccc12` (single isomer, unassigned) [Example 81] showed an IC50 of 1000 nM.
`Cc1ccccc1-c1cc(=O)oc2cc(C(C)CC(=O)N3CCC[C@H](C(=O)O)C3)ccc12` (single isomer, unassigned) [Example 82] showed an IC50 of 5000 nM.
`Cc1ccccc1-c1cc(=O)oc2cc(CC(C)C(=O)N3CCC[C@H](C#N)C3)ccc12` (single isomer, unassigned) [Example 83] gave an IC50 of 60 nM.
With `Cc1ccccc1-c1cc(=O)oc2cc(CC(C)C(=O)N3CCC[C@H](C#N)C3)ccc12` (single isomer, unassigned) [Example 84] the IC50 was 32000 nM.
With `Cc1ccccc1-c1cc(=O)oc2cc(CC(C)C(=O)N3CCC[C@H](S(C)(=O)=O)C3)ccc12` (single isomer, unassigned) [Example 85] the IC50 was 300 nM.
With `Cc1ccccc1-c1cc(=O)oc2cc(CC(C)C(=O)N3CCC[C@H](S(C)(=O)=O)C3)ccc12` (single isomer, unassigned) [Example 86] the IC50 was 5000 nM.
Molecule `CCOC(=O)[C@H]1CCCN(C(=O)C(C)Cc2ccc3c(-c4ccccc4C)cc(=O)oc3c2)C1` (single isomer, unassigned) [Example 87] has an IC50 of 9000 nM.
Work on `CCOC(=O)[C@H]1CCCN(C(=O)C(C)Cc2ccc3c(-c4ccccc4C)cc(=O)oc3c2)C1` (single isomer, unassigned) [Example 88] yielded an IC50 of 90 nM.
`Cc1ccccc1-c1cc(=O)oc2cc(CC(C)C(=O)N3CCC[C@H](C(N)=O)C3)ccc12` (single isomer, unassigned) [Example 89] was tested, and the IC50 was 100 nM.
With `Cc1ccccc1-c1cc(=O)oc2cc(CC(C)C(=O)N3CCC[C@H](C(N)=O)C3)ccc12` (single isomer, unassigned) [Example 90] the IC50 was 8000 nM.
In the case of `CNC(=O)[C@H]1CCCN(C(=O)C(C)Cc2ccc3c(-c4ccccc4C)cc(=O)oc3c2)C1` (single isomer, unassigned) [Example 92], the IC50 is reported as 200 nM.
For `CNC(=O)[C@H]1CCCN(C(=O)C(C)Cc2ccc3c(-c4ccccc4C)cc(=O)oc3c2)C1` (single isomer, unassigned) [Example 93], the IC50 was 17000 nM.
`Cc1ccccc1-c1cc(=O)oc2cc(CC(C)C(=O)N3CCC(C(=O)O)CC3)ccc12` (single isomer, unassigned) [Example 94, 1-(2-methyl-3-(2-oxo-4-(o-tolyl)-2H-chromen-7-yl)propanoyl)piperidine-4-carboxylic acid] showed an IC50 of 200 nM.
Work on `Cc1ccccc1-c1cc(=O)oc2cc(CC(C)C(=O)N3CCC(C(=O)O)CC3)ccc12` (single isomer, unassigned) [Example 95, 1-(2-methyl-3-(2-oxo-4-(o-tolyl)-2H-chromen-7-yl)propanoyl)piperidine-4-carboxylic acid] yielded an IC50 of 4000 nM.
